Data reported in patent publication US6794380B2, “Amide derivatives” (AstraZeneca AB, priority 1999, dated 2004).

What was measured:
[1] = test system: TNFα production in human whole blood; experiment: Human Whole Blood test: inhibition of LPS-stimulated TNFα production; assay type: cell-based
Protocol: The ability of the compounds of this invention to inhibit TNFα production was also assessed in a human whole blood assay. Human whole blood secretes TNFα when stimulated with LPS. This property of blood forms the basis of an assay which is used as a secondary test for compounds which profile as active in the PBMC test.
Heparinised (10 units/ml) human blood was obtained from volunteers. 160 μl whole blood were added to 96 well round-bottom plates (Corning 25850). Compounds were solubilised and serially diluted in RPMI 1640 medium (Gibco) supplemented with 50 units/ml penicillin, 50 μg/ml streptomycin and 2 mM glutamine, as detailed above. 20 μl of each test concentration was added to appropriate wells (triplicate cultures). 20 μl of RPMI 1640 medium supplemented with antibiotics and glutamine was added to control wells. Plates were incubated for 30 minutes at 37° C. (humidified incubator), prior to addition of 20 μl LPS (final concentration 10 μg/ml). RPMI 1640 medium was added to control wells. Six “LPS alone” and four “medium alone” controls were included on each plate. A known TNFα synthesis/secretion inhibitor was included in each test. Plates were incubated for 6 hours at 37° C. (humidified incubator). […] TNFα levels were measured by ELISA (see WO92/10190 and Current Protocols in Molecular Biology, vol 2 by Frederick M. Ausbel et al., John Wiley and Sons Inc.). […]

[2] = target: T1, p38α (Homo sapiens, UniProt Q16539); experiment: In vitro enzyme assay, p38α; assay type: biochemical; details: read-out: IC50 against p38α
T1 construct: c-myc (N); 6His (N); made in house; host or cells: E. coli (PET vectors)
Protocol: The ability of compounds of the invention to inhibit the enzyme p38 kinase was assessed. Activity of test compounds against each of the p38α and p38β isoforms of the enzyme was determined. […]
Test compounds were solubilised in DMSO and 10 μl of a 1:10 diluted sample in ‘Kinase Buffer’ was added to a well in a Microtiter plate. […] The precipitated protein was phosphorylated by p38 kinase and test compounds were assessed for their ability to inhibit this phosphorylation. The plates were filtered using a Canberra Packard Unifilter and washed with 2% TCA, dried overnight and counted on a Top Count scintillation counter.
Test compounds were tested initially at a single dose and active compounds were retested to allow IC50 values to be determined.

T1 sequence (Q16539 whole entry): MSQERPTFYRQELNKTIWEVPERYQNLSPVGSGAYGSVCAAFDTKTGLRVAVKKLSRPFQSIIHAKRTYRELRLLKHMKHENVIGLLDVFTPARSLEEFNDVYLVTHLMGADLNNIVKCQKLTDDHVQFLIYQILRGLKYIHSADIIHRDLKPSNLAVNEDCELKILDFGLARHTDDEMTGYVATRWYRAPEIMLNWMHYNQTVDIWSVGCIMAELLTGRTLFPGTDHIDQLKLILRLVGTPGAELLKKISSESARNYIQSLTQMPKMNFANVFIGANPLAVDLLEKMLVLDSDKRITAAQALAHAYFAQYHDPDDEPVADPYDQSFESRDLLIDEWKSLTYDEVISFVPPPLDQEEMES

- IC50 [1]: ~5 µM
- IC50 [2]: ~0.05 µM
Structure (SMILES): CN(C)CCCN(C)c1ccc(NC(=O)c2cc(NC(=O)c3ccnc(N4CCOCC4)c3)ccc2Cl)cn1 [N-{6-[N-(3-dimethylaminopropyl)-N-methylamino]pyrid-3-yl}-2-chloro-5-(2-morpholinopyrid-4-ylcarbonylamino)benzamide]
